Measured values: US20130267484A1, “TREATMENT OF RHEUMATOID ARTHRITIS WITH MASITINIB” (AB SCIENCE, priority 2010, published 2013)

System: DMARD-refractory active RA
Assay: Phase 2a trial of masitinib in DMARD-refractory active RA: efficacy (ACR, ACRn, CRP, DAS28)
Type: in vivo, Human
Design: ACRn Mean ± SD / ACRn Median: unit not given here
Description: The main exclusion criteria were patients with: inadequate bone marrow function, defined as an absolute neutrophil count ≦2.5×10^9/litre, and platelets ≦100×10^9/litre; active current infection, history of infection requiring hospitalisation, history of recurrent infections, or treatment with antibiotics within 2 weeks of screening. Treatment wash-out periods observed prior to entry to the study were: a) DMARD use within 4 weeks; b) five half-lives, or wash-out in accordance for a specific drug, whichever is longer; c) any live (attenuated) vaccines taken within 4 weeks; d) use of more than one NSAID or its dosage change within 4 weeks; e) prednisone or equivalent corticosteroid dosage >10 mg/day or any dosage change within 4 weeks; and f) prednisone or equivalent corticosteroid dosage >20 mg administered via intra-articular injection, bolus intramuscular or intravenous treatment within 4 weeks. Other exclusion criteria included any previous use of recombinant interleukin-1 receptor antagonist (IL1-Ra) and patients who were pregnant or nursing.
Efficacy data are presented using descriptive statistics, contrasting initial dosage groups or according to previous DMARD failure. For comparison of groups according to initial dosage on a continuous variable, Student test (with Satterwhaite correction for unequal variance) or Wilcoxon test were used when normality was not rejected or rejected, respectively (normality determined via the Shapiro-Wilk test). For the same comparison on a qualitative variable, Chi-square or Fisher Exact test (if the Chi-square hypotheses were not filled) were used. The rate of patients achieving the various ACR response variables after 12 weeks of treatment (remission rate) are presented in terms of percentage and number of patients. Patients were assigned to either 3 or 6 mg/kg/day treatment groups based upon a randomisation schedule generated for packaging and labelling by the Biostatistics Section of AB Science. Individual treatment doses to be administered were supplied in sealed envelopes to be opened by the investigator at time of inclusion. Patients received the treatment from the investigator on an open basis.
Due to the relatively high patient drop-out rate of this study, analysis was conducted on two different datasets: one with an imputation of missing values according to the last observation carried forward (LOCF) methodology and the other in the absence of data imputation, i.e. the observed cases (OC). Analysis for efficacy was performed on a modified Intention-To-Treat (ITT) population and Per Protocol (PP) population. […] The PP population was defined as a subgroup of the ITT population that in addition had presented no major protocol deviations and had completed at least 28 days of treatment exposure.

[1] = Total population (n = 40), ITT population
[2] = W 24, extension phase, ITT population, n = 4
[3] = W 24, extension phase, ITT population, n = 7
[4] = W 36, extension phase, ITT population, n = 5
[5] = W 36, extension phase, ITT population, n = 9
[6] = W 36, extension phase, ITT population, n = 12
[7] = W 48, extension phase, ITT population, n = 6
[8] = W 48, extension phase, ITT population, n = 8
[9] = W 48, extension phase, ITT population, n = 9
[10] = W 60, extension phase, ITT population, n = 7
[11] = W 60, extension phase, ITT population, n = 8

Cc1ccc(NC(=O)c2ccc(CN3CCN(C)CC3)cc2)cc1Nc1nc(-c2cccnc2)cs1 [masitinib, 4-(4-methylpiperazin-1-ylmethyl)-N-[4-methyl-3-(4-pyridin-3ylthiazol-2-ylamino)phenyl]benzamide]
Non-responders (failed to reach ACR20) after dose augmentation (3 mg/kg/day group, 12 patients augmented at weeks 4 or 8): 42%
Patients with improved response after dose augmentation (3 mg/kg/day group, 12 patients augmented at weeks 4 or 8, initial 12-week phase): 58%
Dose response analyses: dose level (6 mg/kg/day): most potent
Highest response rate for the ACR50 threshold by dose at first response (5/15, dosage not given): 33.3%
Time to first response ACR20, Mean ± SD [1]: 46.3 ± 22.4 days
Time to first response ACR20, Median [1]: 35.0 days
Time to first response ACR20, Min-Max [1]: 28.0 to 105.0 days
Time to first response ACR50, Mean ± SD [1]: 89.1 ± 58.2 days
Time to first response ACR50, Median [1]: 84.0 days
Time to first response ACR50, Min-Max [1]: 28.0 to 217.0 days
DAS28 <2.6, patients (W 12, ITT population, n = 24): 1 (4.%)
DAS28 Mean ± SD (W 12, ITT population, n = 24): 4.6 ± 1.3
DAS28 Median (W 12, ITT population, n = 24): 4.4
DAS28 Min-Max (W 12, ITT population, n = 24): 0.5-7.0
DAS28 ≦3.2, patients (W 12, ITT population, n = 24): 1 (4%)
ACR20, patients reaching level (W 12, ITT population, n = 27): 15 (56%)
ACR50, patients reaching level (W 12, ITT population, n = 27): 9 (33%)
ACR70, patients reaching level (W 12, ITT population, n = 27): 3 (11%)
ACR90, patients reaching level (W 12, ITT population, n = 27): 0 (0%)
ACRn Mean ± SD (W 12, ITT population, n = 27): 31.6 ± 33.5
ACRn Median (W 12, ITT population, n = 27): 42.9
ACRn Min-Max (W 12, ITT population, n = 27): −40.0-87.5
CRP 0% < Improvement ≦25%, patients (W 12, ITT population, n = 28): 5 (18%)
CRP 25% < Improvement ≦50%, patients (W 12, ITT population, n = 28): 3 (11%)
CRP Deterioration, patients (W 12, ITT population, n = 28): 3 (11%)
CRP Improvement >50%, patients (W 12, ITT population, n = 28): 14 (50%)
CRP Stable, patients (W 12, ITT population, n = 28): 3 (11%)
DAS28 <2.6, patients [2]: 0 (0%)
DAS28 Mean ± SD [2]: 5.2 ± 1.7
DAS28 Median [2]: 4.9
DAS28 Min-Max [2]: 3.6-7.5
DAS28 ≦3.2, patients [2]: 0 (0%)
ACR20, patients reaching level [3]: 6 (86%)
ACR50, patients reaching level [3]: 2 (27%)
ACR70, patients reaching level [3]: 1 (14%)
ACR90, patients reaching level [3]: 0 (0%)
ACRn Mean ± SD [3]: 36.0 ± 29.0
ACRn Median [3]: 40.7
ACRn Min-Max [3]: −16.7-73.0
CRP 0% < Improvement ≦25%, patients [3]: 1 (14%)
CRP 25% < Improvement ≦50%, patients [3]: 0 (0%)
CRP Deterioration, patients [3]: 0 (0%)
CRP Improvement >50%, patients [3]: 5 (71%)
CRP Stable, patients [3]: 1 (14%)
DAS28 <2.6, patients [4]: 1 (20%)
DAS28 Mean ± SD [4]: 4.4 ± 1.9
DAS28 Median [4]: 4.1
DAS28 Min-Max [4]: 2.3-7.5
DAS28 ≦3.2, patients [4]: 1 (20%)
ACR20, patients reaching level [5]: 7 (78%)
ACR50, patients reaching level [5]: 4 (44%)
ACR70, patients reaching level [5]: 2 (22%)
ACR90, patients reaching level [5]: 1 (11%)
ACRn Mean ± SD [5]: 45.9 ± 32.3
ACRn Median [5]: 45.5
ACRn Min-Max [5]: −3.8-93.3
CRP 0% < Improvement ≦25%, patients [6]: 1 (8%)
CRP 25% < Improvement ≦50%, patients [6]: 1 (8%)
CRP Deterioration, patients [6]: 0 (0%)
CRP Improvement >50%, patients [6]: 9 (75%)
CRP Stable, patients [6]: 1 (8%)
DAS28 <2.6, patients [7]: 0 (0%)
DAS28 Mean ± SD [7]: 4.7 ± 2.1
DAS28 Median [7]: 4.4
DAS28 Min-Max [7]: 2.7-8.7
DAS28 ≦3.2, patients [7]: 2 (33%)
ACR20, patients reaching level [8]: 5 (63%)
ACR50, patients reaching level [8]: 3 (38%)
ACR70, patients reaching level [8]: 1 (13%)
ACR90, patients reaching level [8]: 0 (0%)
ACRn Mean ± SD [8]: 30.9 ± 36.7
ACRn Median [8]: 40.0
ACRn Min-Max [8]: −20.0-70.9
CRP 0% < Improvement ≦25%, patients [9]: 1 (11%)
CRP 25% < Improvement ≦50%, patients [9]: 0 (0%)
CRP Deterioration, patients [9]: 2 (22%)
CRP Improvement >50%, patients [9]: 6 (67%)
CRP Stable, patients [9]: 0 (0%)
CRP 0% < Improvement ≦25%, patients [10]: 1 (14%)
CRP 25% < Improvement ≦50%, patients [10]: 3 (43%)
CRP Deterioration, patients [10]: 0 (0%)
CRP Improvement >50%, patients [10]: 3 (43%)
CRP Stable, patients [10]: 0 (0%)
DAS28 <2.6, patients [10]: 4 (57%)
DAS28 Mean ± SD [10]: 3.3 ± 1.5
DAS28 Median [10]: 2.6
DAS28 Min-Max [10]: 1.7-5.3
DAS28 ≦3.2, patients [10]: 4 (57%)
ACR20, patients reaching level [11]: 6 (75%)
ACR50, patients reaching level [11]: 6 (75%)
ACR70, patients reaching level [11]: 3 (38%)
ACR90, patients reaching level [11]: 2 (25%)
ACRn Mean ± SD [11]: 58.3 ± 31.4
